Assay results: patent US20240327429A1, “[1,3]Thiazolo[4,5-d]-pyrimidon-7-ones as inhibitors of NOX4” (Boehringer Ingelheim International GmbH, priority 2023, published 2024)

Experiments:
NOX2 = target: T1, NOX2 (Homo sapiens, UniProt P04839); assay: NOX2 inhibition assay (L-012), human blood-derived granulocytes; type: cell-based; settings: fMLP/PMA stimulated
T1 construct: endogenous in cells; host or cells: freshly isolated human blood-derived granulocytes
T1 sequence (P04839 2-570 limits assumed): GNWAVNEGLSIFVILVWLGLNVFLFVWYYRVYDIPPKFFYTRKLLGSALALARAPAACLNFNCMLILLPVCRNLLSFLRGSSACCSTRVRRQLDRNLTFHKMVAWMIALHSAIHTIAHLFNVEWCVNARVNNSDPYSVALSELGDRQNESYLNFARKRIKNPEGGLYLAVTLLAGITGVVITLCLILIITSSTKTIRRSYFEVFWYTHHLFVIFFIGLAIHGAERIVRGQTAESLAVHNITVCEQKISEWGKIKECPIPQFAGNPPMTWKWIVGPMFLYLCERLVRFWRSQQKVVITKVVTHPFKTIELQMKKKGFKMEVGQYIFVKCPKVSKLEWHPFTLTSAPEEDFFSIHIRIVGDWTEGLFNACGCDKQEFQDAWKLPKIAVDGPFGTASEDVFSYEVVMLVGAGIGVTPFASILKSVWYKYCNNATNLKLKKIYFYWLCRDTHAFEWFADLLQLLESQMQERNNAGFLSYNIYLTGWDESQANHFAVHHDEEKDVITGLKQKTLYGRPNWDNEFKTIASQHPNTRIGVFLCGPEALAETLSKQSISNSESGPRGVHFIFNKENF
T1 sequence (P13498 2-195 partner limits assumed): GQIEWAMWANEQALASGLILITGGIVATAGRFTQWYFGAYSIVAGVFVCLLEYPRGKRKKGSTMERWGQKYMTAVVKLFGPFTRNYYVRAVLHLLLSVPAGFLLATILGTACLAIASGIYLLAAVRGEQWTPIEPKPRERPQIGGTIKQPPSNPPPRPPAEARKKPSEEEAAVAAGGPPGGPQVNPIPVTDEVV
Description: Evaluation of the NOX4 inhibitors on NOX2 activity is assessed in human blood-derived granulocytes.
Afterwards, freshly isolated granulocytes are added to the wells containing the compounds in assay buffer and incubated for 1 h at 37° C. Next, a solution of Nformylmethionine-leucyl-phenylalanine (fMLP; 730 nM), phorbol myristate acetate (PMA, 100 nM) (stimuli of ROS production) and L-012 (200 μM, ROS indicator) is added to the wells and the cells are incubated for additional 30 mins at 37° C. Afterwards luminescence is measured in a SpectraMax M5 microplate reader.

human NOX5 (hNOX5) = target: T2, human NOX5 (hNOX5) (Homo sapiens, UniProt Q96PH1); assay: NOX5 inhibition assay (L-012), HEK293 cells stably overexpressing human NOX5; type: cell-based; settings: HEK293-hNOX5, PMA stimulated
T2 construct: expressed in transfected cells; host or cells: HEK293
T2 sequence (Q96PH1 1-765): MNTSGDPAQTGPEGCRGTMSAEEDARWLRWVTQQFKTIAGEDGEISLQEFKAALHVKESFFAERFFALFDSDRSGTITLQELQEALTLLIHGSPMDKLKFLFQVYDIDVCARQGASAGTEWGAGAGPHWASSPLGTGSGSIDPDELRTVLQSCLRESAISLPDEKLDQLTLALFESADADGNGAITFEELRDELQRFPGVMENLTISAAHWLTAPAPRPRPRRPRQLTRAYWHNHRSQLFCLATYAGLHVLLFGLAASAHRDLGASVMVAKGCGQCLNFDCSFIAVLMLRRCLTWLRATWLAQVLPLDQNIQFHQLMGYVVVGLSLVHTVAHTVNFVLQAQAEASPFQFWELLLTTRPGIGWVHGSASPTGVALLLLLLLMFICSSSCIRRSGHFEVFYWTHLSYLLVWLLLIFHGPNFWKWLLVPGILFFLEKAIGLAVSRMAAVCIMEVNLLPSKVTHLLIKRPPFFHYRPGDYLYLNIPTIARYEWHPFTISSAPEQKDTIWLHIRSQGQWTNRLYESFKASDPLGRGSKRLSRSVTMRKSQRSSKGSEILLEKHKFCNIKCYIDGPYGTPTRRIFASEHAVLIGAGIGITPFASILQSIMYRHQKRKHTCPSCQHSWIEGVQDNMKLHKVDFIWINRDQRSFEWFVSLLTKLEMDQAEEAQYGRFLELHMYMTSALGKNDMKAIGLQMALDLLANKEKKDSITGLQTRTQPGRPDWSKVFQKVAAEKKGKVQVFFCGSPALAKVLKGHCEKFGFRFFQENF
Description: The synthetic gene hNOX5 (Accession: Q96PH1) is cloned into pcDNA3.1_Zeo. […] The final construct is verified by sequencing.
Evaluation of the NOX4 inhibitors on NOX5 activity is assessed in HEK293 cells stably overexpressing human NOX5 (hNOX5).
Cells are seeded in 384 well plates over-night. […] Cells are then stimulated with PMA at 0.1 μM to induce NOX5-dependent ROS production. […] Luminescence is measured with an PHERAstar multimode reader.

human hepatocytes = assay: Evaluation of hepatocyte clearance (metabolic stability); type: in vitro ADME; settings: 1 μM test compound, 5% human serum, Table 3
Description: The metabolic degradation of the test compound is assayed in a hepatocyte suspension. Hepatocytes (cryopreserved) are incubated in Dulbecco's modified eagle medium (supplemented with […] glucagon/500 mL, 2.5 mg insulin/500 mL and 3.75 mg/500 mL hydrocortisone) containing 5% human serum.
Following a 30 min preincubation in an incubator (37° C., 10% CO2) 5 μl of test compound solution (80 μM; from 2 mM in DMSO stock solution diluted 1:25 with medium) are added into 395 μl hepatocyte suspension (cell density in the range 0.25-5 Mio cells/mL, typically 1 Mio cells/mL; final concentration of test compound 1 μM, final DMSO concentration 0.05%).
The cells are incubated for six hours (incubator, orbital shaker) and samples (25 μl) are taken at 0, 0.5, 1, 2, 4 and 6 hours. Samples are transferred into acetonitrile and pelleted by centrifugation (5 min). The supernatant is transferred to a new 96-deepwell plate, evaporated under nitrogen and resuspended.
Decline of Parent Compound is Analyzed by HPLC-MS/MS.
CLint is Calculated as Follows:
CL_[…]=Dose/AUC=(C0/CD)/(AUD+clast/k)×1000/60. • C0: initial concentration in the incubation [μM], CD: cell density of vital cells [10^6 cells/mL], AUD: area under the data [μM×h], clast: concentration of last data point [μM], • k: slope of the regression line for parent decline [h-1].
The calculated in vitro hepatic intrinsic clearance can be scaled up to the intrinsic in vivo hepatic clearance and used to predict hepatic in vivo blood clearance (CL) by the use of a liver model (well stirred model).
CL_[…]_INVIVO[ml/min/kg]=(CL_[…][μL/min/10^6 cells]×hepatocellularity[10^6 cells/g liver]×liver factor[g/kg bodyweight])/1000
CL[ml/min/kg]=CL_[…]_INVIVO[ml/min/kg]×hepatic blood flow[ml/min/kg]/(CL_[…]_INVIVO[ml/min/kg]+hepatic blood flow[ml/min/kg])

SMILES | IC50 (NOX2) | IC50 (human NOX5 (hNOX5)) | Qh [%] (human hepatocytes)
O=c1c2scnc2nc(SCc2ccc(Cl)cc2F)n1-c1cc(F)c(O)c(F)c1 [Example 2, 5-((4-Chloro-2-fluorobenzyl)thio)-6-(3,5-difluoro-4-hydroxyphenyl)thiazolo[4,5-d]-pyrimidin-7(6H)-one] | > 100 µM | > 100 µM | 53%
Cc1cc(Cl)ccc1CSc1nc2ncsc2c(=O)n1-c1cc(F)c(O)c(F)c1 [Example 3] | > 100 µM | > 100 µM | –
Cc1cc(F)cc(C)c1CSc1nc2ncsc2c(=O)n1-c1cc(F)c(O)c(F)c1 [Example 4] | > 100 µM | > 100 µM | 41%
O=c1c2scnc2nc(SCc2ccc(Cl)cc2)n1-c1cc(F)c(O)c(F)c1 [Example 5] | > 100 µM | > 100 µM | 56%
O=c1c2scnc2nc(SCc2ccc(C(F)(F)F)cc2F)n1-c1cc(F)c(O)c(F)c1 [Example 6] | > 100 µM | > 100 µM | –
O=c1c2scnc2nc(SCc2ccc(C(F)(F)F)cc2)n1-c1cc(F)c(O)c(F)c1 [Example 7] | > 100 µM | > 100 µM | 55%
O=c1c2scnc2nc(SCc2c(F)cc(F)cc2F)n1-c1cc(F)c(O)c(F)c1 [Example 8] | > 30 µM | > 100 µM | 42%
Cc1cc(F)ccc1CSc1nc2ncsc2c(=O)n1-c1cc(F)c(O)c(F)c1 [Example 9] | > 100 µM | > 100 µM | 65%
O=c1c2scnc2nc(SCc2c(F)cc(F)cc2F)n1-c1cc(F)c(O)cc1F [Example 10, 6-(2,5-Difluoro-4-hydroxyphenyl)-5-((2,4,6-trifluorobenzyl)thio)thiazolo[4,5-d]pyrimidin-7(6H)-one] | > 30 µM | 11.5 µM | 72%
O=c1c2scnc2nc(SCc2c(F)cc(F)cc2F)n1-c1ccc(O)c(F)c1 [Example 11] | > 30 µM | 13 µM | 79%
O=c1c2scnc2nc(SCc2c(F)cc(F)cc2F)n1-c1ccc(O)c(F)c1F [Example 12] | > 30 µM | – | 77%
O=c1c2scnc2nc(SCc2c(F)cc(F)cc2F)n1-c1c(F)cc(O)cc1F [Example 13] | 84.6 µM | 5.1 µM | –
O=c1c2scnc2nc(SCc2c(F)cc(F)cc2F)n1-c1ccc(O)cc1F [Example 14] | 13.4 µM | 10.2 µM | 73%
O=c1c2scnc2nc(SCc2c(F)cc(F)cc2F)n1-c1ccc(O)cc1 [Example 15] | 10.3 µM | 59 µM | 61%
O=c1c2scnc2nc(SCc2c(F)cc(F)cc2F)n1-c1ccc(O)c(Cl)c1 [Example 16] | > 100 µM | 36 µM | 73%
O=c1c2scnc2nc(SCc2c(F)cc(F)cc2F)n1-c1ccc(O)cc1Cl [Example 17] | – | 17.5 µM | 70%
N#Cc1cc(-n2c(SCc3c(F)cc(F)cc3F)nc3ncsc3c2=O)ccc1O [Example 18] | > 30 µM | > 100 µM | 48%
O=c1c2scnc2nc(SCc2c(F)cc(F)cc2F)n1-c1ccc(O)cn1 [Example 19] | 48.1 µM | > 100 µM | 52%
O=c1c2scnc2nc(SCc2c(F)cc(F)cc2F)n1-c1cc(F)c(O)cn1 [Example 20] | > 100 µM | 32.7 µM | 51%
Cc1c(F)cccc1CSc1nc2ncsc2c(=O)n1-c1cnc(O)c(F)c1 [Example 40] | > 100 µM | 56.3 µM | –
Cc1cc(F)cc(C)c1CSc1nc2ncsc2c(=O)n1-c1ccc(O)nn1 [Example 63] | 46 µM | > 100 µM | –
Cc1cc(F)ccc1CSc1nc2ncsc2c(=O)n1-c1ccc(O)nn1 [Example 68] | > 100 µM | > 100 µM | –
